Source: article PMC11785791, “Cryo-EM structure of the calcium-sensing receptor complexed with the kokumi substance γ-glutamyl-valyl-glycine” (Scientific Reports, 2025)
Where a chain is given by its changes, count along the chain named. *1 amine or outer side, *2 acyl side, *3 side chain or, on linkers, in order; H or OH if unused. Where a SMILES comes first, the peptide text is derived from it. γGlu = O=C(O)[CH](CCC(=O)[*:2])N[*:1]

What was measured:
human CaSR E297A mutant = molecular target: T1, human CaSR E297A mutant (Homo sapiens, UniProt P41180, E297A); test: Calcium mobilization assay, CaSR E297A mutant; type: cell-based; conditions: for Response in calcium mobilization assay: in words
T1 construct: (N); expressed in transfected cells; host or cells: PEAKrapid cells (ATCC), pcDNA 3.1, transient transfection
T1 sequence (P41180 20-1078 E297A): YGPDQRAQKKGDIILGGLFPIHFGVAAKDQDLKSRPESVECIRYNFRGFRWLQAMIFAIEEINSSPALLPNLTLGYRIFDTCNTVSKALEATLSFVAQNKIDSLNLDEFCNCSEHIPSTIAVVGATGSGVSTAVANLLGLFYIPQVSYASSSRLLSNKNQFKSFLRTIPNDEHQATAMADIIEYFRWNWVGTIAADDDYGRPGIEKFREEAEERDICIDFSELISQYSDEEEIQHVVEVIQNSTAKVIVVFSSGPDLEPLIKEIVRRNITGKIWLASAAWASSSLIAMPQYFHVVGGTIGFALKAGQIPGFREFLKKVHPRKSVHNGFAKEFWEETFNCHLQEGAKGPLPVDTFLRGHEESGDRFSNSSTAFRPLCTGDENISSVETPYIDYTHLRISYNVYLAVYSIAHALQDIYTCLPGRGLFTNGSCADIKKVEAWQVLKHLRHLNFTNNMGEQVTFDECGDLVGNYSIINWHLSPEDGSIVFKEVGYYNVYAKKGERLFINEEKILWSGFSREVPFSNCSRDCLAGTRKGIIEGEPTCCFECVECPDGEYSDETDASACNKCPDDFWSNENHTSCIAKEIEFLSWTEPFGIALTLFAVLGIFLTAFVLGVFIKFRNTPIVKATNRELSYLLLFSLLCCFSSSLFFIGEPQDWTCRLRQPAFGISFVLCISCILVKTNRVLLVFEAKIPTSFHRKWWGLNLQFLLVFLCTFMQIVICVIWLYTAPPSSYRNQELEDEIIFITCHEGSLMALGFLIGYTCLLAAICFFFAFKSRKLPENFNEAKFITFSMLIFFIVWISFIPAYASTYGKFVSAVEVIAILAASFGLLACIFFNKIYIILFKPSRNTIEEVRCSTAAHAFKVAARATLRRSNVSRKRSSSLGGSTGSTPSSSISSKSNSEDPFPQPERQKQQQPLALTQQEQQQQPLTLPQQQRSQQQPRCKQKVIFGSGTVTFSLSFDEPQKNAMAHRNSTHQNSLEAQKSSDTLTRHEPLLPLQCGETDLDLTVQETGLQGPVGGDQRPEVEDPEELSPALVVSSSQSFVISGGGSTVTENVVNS
Method: (§1) The CaSR receptor responsiveness was assessed by using PEAK^rapid cells (ATCC, Manassas, VA, USA) transiently transfected with the receptor DNA by the method reported by Kitajima et al.[6]. Briefly, human CaSR or its mutant cDNA with a signal sequence (MAFYSCCWVLLALTWHTSA) followed by FLAG-tag (DYKDDDDK) were inserted into pcDNA 3.1 expression vectors in Opti-MEM I medium (Thermo Fisher Scientific), mixed with FuGENE 6 (Roche), and poured onto PEAK^rapid cells grown at a submaximal concentration. After culturing for 24 h in 96-well plates, the cells were incubated with 5 µM Calcium-5 solution (Calcium-5 assay kit, Molecular Devices) for 45–60 min, and measurements were performed using a plate reader (FDSS/µCELL, Hamamatsu Photonics, Shizuoka, Japan) and its associated software. The activation of CaSR expressed in cells increases the intracellular Ca^2+ concentration, which is measured using a Ca^2+-sensitive dye. The binding of Ca^2+ to the Ca^2+-sensitive dye increases dye fluorescence, with excitation at 485 nm and emission at 525 nm. Test compounds were dissolved and administered in the assay buffer (146 mM NaCl, 1 mM MgSO4, 20 mM HEPES, 1 mM CaCl2, 2.5 mM probenecid, and 1.39 mM glucose, pH 7.4). Transiently transfected cells were challenged with compounds and compared with the vehicle alone and/or mock-transfected cells. The concentration dependence of the fluorescence intensity (influx of Ca^2+) was analyzed using the plate reader at 1 s intervals for 180 s. For the dose–response curve calculations, peak fluorescence responses after the addition of compounds were corrected for, normalized to the background fluorescence (ΔF/F = –F − F0)/F0), and baseline noise was subtracted. Dose–response curves were calculated by non-linear regression using GraphPad PRISM 8.0.

human CaSR P39S mutant = molecular target: T2, human CaSR P39S mutant (Homo sapiens, UniProt P41180, P39S); test: Calcium mobilization assay, CaSR P39S mutant; type: cell-based; conditions: for Response in calcium mobilization assay: in words
T2 construct: expressed in transfected cells; host or cells: PEAKrapid cells (ATCC), pcDNA 3.1, transient transfection
T2 sequence (P41180 20-1078 P39S): T1 sequence (P41180 20-1078 E297A) with P20S, A278E
Method: as §1

SMILES | Emax (% of wild-type values) (human CaSR E297A mutant) | EC50 (human CaSR E297A mutant; mean ± s.e.m., n = 3) [mM] | Emax (% of wild-type values) (human CaSR P39S mutant) | EC50 (human CaSR P39S mutant; mean ± s.e.m., n = 3) [mM] | Response in calcium mobilization assay (human CaSR E297A mutant) | Response in calcium mobilization assay (human CaSR P39S mutant)
[Ca+2].[Cl-].[Cl-] [CaCl2] | 86.0 % of WT | 6.58 ± 0.3 | 74.5 % of WT | 7.52 ± 0.23 | – | –
N[C@@H](Cc1ccc(O)cc1)C(=O)O [L-Tyr, L-tyrosine] | – | – | – | – | no response | no response
CC(C)[C@H](NC(=O)CC[C@H](N)C(=O)O)C(=O)O [γ-EV, γ-glutamyl-valine] | – | – | – | – | no response | no response
CC(C)C(NC(=O)CCC(N)C(=O)O)C(=O)NCC(=O)O (stereo not drawn) [γ-EVG, γ-glutamyl-valyl-glycine] (γGlu-Val-Gly-OH; configuration not given here) | – | – | – | – | greatly reduced the response | large decrease in the response
